Reference: US20190076392A1, “METHODS FOR TREATING CANCER” (Boston Biomedical, Inc., priority 2016, published 2019)

Assays:
[1] = tested on: β-CATENIN; assay: Immunofluorescence staining of xenograft tumor cells for β-CATENIN; type: in vivo; conditions: human colon cancer xenograft tumor (SW480) in nude mice; treated vs control
Description: (§1) The effects of 2-acetylnaphtho[2,3-b]furan-4,9-dione, a compound of formula (I), to tumor cells were studied by analyzing the tumor cells treated with the compound or without the compound (control) with immunofluorescence staining using antibodies specific for human p-STAT3 and 13-CATENIN.

[2] = Phase Ib study in mPDAC patients, safety and adverse events; type: in vivo, human; conditions: in combination with gemcitabine and nab-paclitaxel
Description: The effects of 2-acetylnaphtho[2,3-b]furan-4,9-dione, a compound of formula (I), in combination with gemcitabine and nab-paclitaxel in patients with metastatic pancreatic ductal adenocarcinoma (mPDAC) were studied in a Phase Ib extension, open label, multi-center study.
In that clinical study, the safety, tolerability and the recommended Phase II dose (RP2D), PK profile, and signs of anti-cancer activity of 2-acetylnaphtho[2,3-b]furan-4,9-dione in combination with nab-paclitaxel and gemcitabine were assessed in adult patients with metastatic pancreatic cancer. In each treatment cycle, 2-acetylnaphtho[2,3-b]furan-4,9-dione was administered at 240 mg BID for 4 weeks in combination with nab-paclitaxel 125 mg/m^2 and gemcitabine 1000 mg/m^2 administered weekly for 3 out of the 4 weeks. The treatment continued in 28-day cycles.
The patients received continuous oral administration of BBI-608 twice daily in 28 day cycles. A standard gemcitabine and nab-paclitaxel regimen was administered on days 1, 8 and 15 of every 28 day study cycle. Specifically, BBI-608 was administered at 240 mg BID in combination with gemcitabine 1000 mg/m^2 and nab-paclitaxel 125 mg/m^2 administered weekly for 3 out every 4 weeks until progression of disease, unacceptable toxicity, or another discontinuation criterion was met. Pharmacokinetics and pharmacodynamics were evaluated and objective tumor response was assessed every 8 weeks using Response Evaluation Criteria In Solid Tumors (RECIST 1.1).

[3] = tested on: human pancreatic adenocarcinoma (Panc-1); assay: Human pancreatic adenocarcinoma (Panc-1) xenograft in immunosuppressed mice; type: in vivo
Description: FIG. 6 show an exemplary effect of 2-acetylnaphtho[2,3-b]furan-4,9-dione, gemcitabine (Gemzar), and the combination of 2-acetylnaphtho[2,3-b]furan-4,9-dione and gemcitabine treatment on tumor volume in an xenograft tumor mouse model according to certain embodiments of the present disclosure.
The effects of 2-acetylnaphtho[2,3-b]furan-4,9-dione, a compound of formula (I), gemcitabine, and a combination of 2-acetylnaphtho[2,3-b]furan-4,9-dione and gemcitabine were studied. Specifically, immunosuppressed mice with established human pancreatic adenocarcinoma (Panc-1) were treated with vehicle control, 2-acetylnaphtho[2,3-b]furan-4,9-dione (100 mg/kg, PO, bid), gemcitabine (Gemzar, 80 mg/kg, IV, q3d), or the combination of 2-acetylnaphtho[2,3-b]furan-4,9-dione and gemcitabine. Tumor size was evaluated periodically during treatment. Each point represents the mean+SEM of five tumors.

[4] = tested on: STAT3; assay: Clinical trials, overall survival by STAT3/pSTAT3 level; type: in vivo, human; conditions: patients with higher expression levels of STAT3 (pSTAT3 before treatment), at least in CRC patients
Description: Thus, the higher the level of pSTAT3 found in a cancer patient before treatment, at least in CRC patients, the higher the overall survival (OS) upon administering a treatment comprising at least one compound of formula (I).

[5] = tested on: STAT3 pathway; conditions: according to U.S. Pat. No. 8,877,803; read-out: STAT3 pathway activity, cellular IC50; cited from earlier work
[6] = molecular target: T1, human p-STAT3 (Homo sapiens, UniProt P40763); assay: Immunofluorescence staining of xenograft tumor cells for p-STAT3; type: in vivo; conditions: human colon cancer xenograft tumor (SW480) in nude mice; treated vs control
T1 construct: p-STAT3 and β-CATENIN protein levels in human colon cancer xenograft tumor (SW480) in nude mice; endogenous in cells; host or cells: SW480 human colon cancer xenograft tumor in nude mice
T1 sequence (P40763 whole entry): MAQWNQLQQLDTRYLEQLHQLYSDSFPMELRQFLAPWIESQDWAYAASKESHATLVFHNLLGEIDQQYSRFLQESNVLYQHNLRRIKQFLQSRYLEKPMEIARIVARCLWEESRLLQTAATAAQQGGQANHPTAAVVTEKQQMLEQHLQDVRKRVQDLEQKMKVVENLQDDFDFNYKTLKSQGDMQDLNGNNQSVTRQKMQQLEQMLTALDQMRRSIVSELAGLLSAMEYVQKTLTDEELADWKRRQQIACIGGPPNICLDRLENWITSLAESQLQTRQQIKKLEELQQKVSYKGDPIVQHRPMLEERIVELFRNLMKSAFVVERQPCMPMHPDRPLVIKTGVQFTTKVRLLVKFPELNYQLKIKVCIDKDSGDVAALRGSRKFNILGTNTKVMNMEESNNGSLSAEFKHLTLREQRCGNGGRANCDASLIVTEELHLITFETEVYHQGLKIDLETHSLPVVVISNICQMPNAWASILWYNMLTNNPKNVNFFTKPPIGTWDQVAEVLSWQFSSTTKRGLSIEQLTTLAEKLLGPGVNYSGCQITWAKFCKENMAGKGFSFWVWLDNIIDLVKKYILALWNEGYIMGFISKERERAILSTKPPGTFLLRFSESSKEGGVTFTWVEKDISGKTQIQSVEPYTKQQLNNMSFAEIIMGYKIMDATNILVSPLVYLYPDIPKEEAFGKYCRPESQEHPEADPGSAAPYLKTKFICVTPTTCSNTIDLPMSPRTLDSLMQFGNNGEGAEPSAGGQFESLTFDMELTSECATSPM
Description: as §1

[7] = tested on: Paca-2 human pancreatic cancer; assay: Human PDAC xenograft tumor (Paca-2) in nude mice; type: in vivo
Description: FIGS. 5A and 5B show an exemplary effect of a 2-acetylnaphtho[2,3-b]furan-4,9-dione and gemcitabine treatment on pancreatic ductal adenocarcinoma (PDAC) in an xenograft tumor mouse model according to certain embodiments of the present disclosure.
The effects of 2-acetylnaphtho[2,3-b]furan-4,9-dione, a compound of formula (I), on a human PDAC xenograft tumor (Paca-2) in nude mice were studied. Specifically, immunosuppressed mice with Paca-2 human pancreatic cancer were given 2-acetylnaphtho[2,3-b]furan-4,9-dione (20 mg/kg) or vehicle control IP daily or gemcitabine (120 mg/kg) or vehicle control IP every 3 days. Tumor size was evaluated periodically during treatment. Each point represents the mean+SEM of five tumors.

**Q.** Which “tumor cells with positive staining for β-CATENIN” value [1] does the source give for CC(=O)c1cc2c(o1)C(=O)c1ccccc1C2=O [2-acetylnaphtho[2,3-b]furan-4,9-dione] here?
**A.** Its value is “effectively inhibited”.

**Q.** What about the “grade 3 AEs related to napabucasin, number of patients” value [2] of the same molecule?
**A.** Its value is 9 patients.

**Q.** And the “grade 3 dehydration related to napabucasin, number of patients” value [2]?
**A.** Its value is 1 patient.

**Q.** What about the “grade 3 diarrhea related to napabucasin, number of patients” value [2] of the same molecule?
**A.** The value was 1 patient.

**Q.** And the “grade 3 fatigue related to napabucasin, number of patients” value [2]?
**A.** The value was 5 patients.

**Q.** And the “grade 3 hypokalemia related to napabucasin, number of patients” value [2]?
**A.** The value was 1 patient.

**Q.** What about the “grade 3 nausea related to napabucasin, number of patients” value [2] of the same molecule?
**A.** Its value is 1 patient.

**Q.** And the “most common adverse events (AEs) related to napabucasin” value [2]?
**A.** Its value is “grade 1 diarrhea, abdominal pain, nausea, and fatigue”.

**Q.** And the “tumor growth (tumor size)” value ([3]; 100 mg/kg, PO, bid)?
**A.** The value was “certain effects in inhibiting tumor growth”.

**Q.** And the “overall survival after treatment” value [4]?
**A.** Its value is “prolonged overall survival”.

**Q.** And the IC50 [5]?
**A.** The IC50 was ~250 nM.

**Q.** What about the “tumor cells with positive staining for human p-STAT3” value [6] of the same molecule?
**A.** The value was “effectively inhibited”.

**Q.** What about the “tumor growth (tumor size)” value ([7]; 20 mg/kg IP daily) of the same molecule?
**A.** The value was “effective at inhibiting tumor growth”.

**Q.** Which “tumor growth (tumor size)” value ([3]; Gemzar, 80 mg/kg, IV, q3d) does the source give for Nc1ccn([C@@H]2O[C@H](CO)[C@@H](O)C2(F)F)c(=O)n1 [gemcitabine, reference compound] here?
**A.** Its value is “certain effects in inhibiting tumor growth”.

**Q.** And the “tumor growth (tumor size)” value ([7]; 120 mg/kg IP every 3 days)?
**A.** Its value is “only a marginal effect on tumor growth”.
